Source: US20250114460A1, “NOVEL PLK1 DEGRADATION INDUCING COMPOUND” (UPPTHERA, INC., priority 2021, published 2025)

Tests used:
PLK1 = molecular target: T1, PLK1 (Homo sapiens, UniProt P53350); test: Luciferase assay for PLK1 in HeLa LgBit (Plk1-HiBit KI) cell line; format: cell-based; settings: 300 nM compound, luminescence after 9 hours
T1 construct: endogenous in cells; host or cells: HeLa LgBit (Plk1-HiBit KI): HeLa stably expressing LgBit, with a CRISPR/Cas9 knock-in of HiBit at the endogenous PLK1 locus
In short: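 HeLa cells stably expressing LgBit, with HiBit knocked in at the C-terminus of endogenous Plk1, released from a 24 h 2 mM thymidine block and grown 18 h. Endurazine added, then compound at 300 nM; luminescence tracked in real time, expressed as ratio to DMSO.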

NCI-H526 cell line = test: Cell viability assay for H526 cell (EZ-Cytox); format: cell-based; settings: Homo sapiens, NCI-H526, 120 h; H526 cells, 5 days, 3000 nM to 0.46 nM
Experimental: (1) Culture of NCI-H526 Cell Line
(2) Treatment of Compounds of the Present Invention and Method of Cell Viability Assay
After treating the compound to each well to make the total volume of 200 μL, it was cultured in a CO2 incubator (Thermo Fisher Science, Cat. No. 4111) for 5 days.
The absorbance of the completely cultured sample was measured by setting the wavelength of a plate reader (BMG Labtech, CLARIOstar Plus) to […], and was measured after shaking for 3 minutes in a plate reader before measurement.
In Table 3, Activity represents IC50 value of each Exemplary Compound treatment group to H526 cell line (A: <30 nM, B: <50 nM, C: <100 nM, D: <200 nM, E: <400 nM).

T1 sequence (P53350 whole entry): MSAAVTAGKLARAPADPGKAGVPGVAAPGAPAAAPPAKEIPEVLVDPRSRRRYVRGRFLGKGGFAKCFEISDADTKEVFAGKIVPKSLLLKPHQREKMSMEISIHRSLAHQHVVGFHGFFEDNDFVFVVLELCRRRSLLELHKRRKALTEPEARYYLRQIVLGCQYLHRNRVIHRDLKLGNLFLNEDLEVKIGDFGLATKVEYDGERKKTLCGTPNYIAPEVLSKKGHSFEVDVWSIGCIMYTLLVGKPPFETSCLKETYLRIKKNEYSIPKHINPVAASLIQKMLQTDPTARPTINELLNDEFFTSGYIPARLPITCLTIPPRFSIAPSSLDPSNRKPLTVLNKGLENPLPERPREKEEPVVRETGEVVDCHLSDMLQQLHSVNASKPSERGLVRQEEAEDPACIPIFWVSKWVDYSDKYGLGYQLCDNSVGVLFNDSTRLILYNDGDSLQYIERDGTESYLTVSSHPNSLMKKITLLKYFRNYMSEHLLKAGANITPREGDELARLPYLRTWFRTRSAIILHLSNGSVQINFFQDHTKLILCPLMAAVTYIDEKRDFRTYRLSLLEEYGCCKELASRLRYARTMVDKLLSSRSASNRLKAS

| Compound | Activity: ratio of the luminescense value of each Exemplary Compound treatment group to DMSO treatment group (PLK1) | IC50 (NCI-H526 cell line) |
| --- | --- | --- |
| COc1cc(C(=O)NC2CCN(CCOc3cccc4c3C(=O)N(C3CCC(=O)NC3=O)C4=O)CC2)c(F)cc1Nc1ncc2c(n1)N(C1CCCC1)CC(F)(F)C(=O)N2C (centres unmarked) [Compound 2, 4-((9-cyclopentyl-7,7-difluoro-5-methyl-6-oxo-6,7,8,9-tetrahydro-5H-pyrimido[4,5-b][1,4]diazepin-2-yl)amino)-N-(1-(2-((2-(2,6-dioxopiperidin-3-yl)-1,3-dioxoisoindolin-4-yl)oxy)ethyl)piperidin-4-yl)-2-fluoro-5-methoxybenzamide] | ++ (++<0.6) | < 200 nM |
| COc1cc(C(=O)NC2CCN(CCOc3cccc4c3C(=O)N(C3CCC(=O)NC3=O)C4=O)CC2)c(Cl)cc1Nc1ncc2c(n1)N(C1CCCC1)CC(F)(F)C(=O)N2C (centres unmarked) [Compound 6, 2-chloro-4-((9-cyclopentyl-7,7-difluoro-5-methyl-6-oxo-6,7,8,9-tetrahydro-5H-pyrimido[4,5-b][1,4]diazepin-2-yl)amino)-N-(1-(2-((2-(2,6-dioxopiperidin-3-yl)-1,3-dioxoisoindolin-4-yl)oxy)ethyl)piperidin-4-yl)-5-methoxybenzamide] | +++ (+++: <0.3) | < 400 nM |
| COc1cc(C(=O)NCCCOCCCOCCOc2cccc3c2CN(C2CCC(=O)NC2=O)C3=O)ccc1Nc1ncc2c(n1)N(C1CCCC1)CC(F)(F)C(=O)N2C (centres unmarked) [Compound 20, 4-((9-cyclopentyl-7,7-difluoro-5-methyl-6-oxo-6,7,8,9-tetrahydro-5H-pyrimido[4,5-b][1,4]diazepin-2-yl)amino)-N-(3-(3-(2-((2-(2,6-dioxopiperidin-3-yl)-1-oxoisoindolin-4-yl)oxy)ethoxy)propoxy)propyl)-3-methoxybenzamide] | ++ (++<0.6) | < 200 nM |
| COc1cc(C(=O)N[C@H]2CC[C@H](N3CCN(CCOCCOc4cccc5c4CN(C4CCC(=O)NC4=O)C5=O)CC3)CC2)ccc1Nc1ncc2c(n1)N(C1CCCC1)CC(F)(F)C(=O)N2C (some centres unmarked) [Compound 198, 4-((9-cyclopentyl-7,7-difluoro-5-methyl-6-oxo-6,7,8,9-tetrahydro-5H-pyrimido[4,5-b][1,4]diazepin-2-yl)amino)-N-((1r,4r)-4-(4-(2-(2-((2-(2,6-dioxopiperidin-3-yl)-1-oxoisoindolin-4-yl)oxy)ethoxy)ethyl)piperazin-1-yl)cyclohexyl)-3-methoxybenzamide] | ++ (++<0.6) | – |
| COc1cc(C(=O)NC2CCN(C(=O)CCCCCOC3CN(c4cccc5c4C(=O)N(C4CCC(=O)NC4=O)C5=O)C3)CC2)ccc1Nc1ncc2c(n1)N(C1CCCC1)CC(F)(F)C(=O)N2C (centres unmarked) [Compound 199, 4-((9-cyclopentyl-7,7-difluoro-5-methyl-6-oxo-6,7,8,9-tetrahydro-5H-pyrimido[4,5-b][1,4]diazepin-2-yl)amino)-N-(1-(6-((1-(2-(2,6-dioxopiperidin-3-yl)-1,3-dioxoisoindolin-4-yl)azetidin-3-yl)oxy)hexanoyl)piperidin-4-yl)-3-methoxybenzamide] | + (+<0.7) | – |
| COc1cc(C(=O)NN2CCN(C3CN(c4cccc5c4C(=O)N(C4CCC(=O)NC4=O)C5=O)C3)CC2)ccc1Nc1ncc2c(n1)N(C1CCCC1)CC(F)(F)C(=O)N2C (centres unmarked) [Compound 200, 4-((9-cyclopentyl-7,7-difluoro-5-methyl-6-oxo-6,7,8,9-tetrahydro-5H-pyrimido[4,5-b][1,4]diazepin-2-yl)amino)-N-(4-(1-(2-(2,6-dioxopiperidin-3-yl)-1,3-dioxoisoindolin-4-yl)azetidin-3-yl)piperazin-1-yl)-3-methoxybenzamide] | + (+<0.7) | – |
| COc1cc(C(=O)NC2CCN(C(=O)CC3CN(c4cccc5c4C(=O)N(C4CCC(=O)NC4=O)C5=O)C3)CC2)c(F)cc1Nc1ncc2c(n1)N(C1CCCC1)CC(F)(F)C(=O)N2C (centres unmarked) [Compound 204, 4-((9-cyclopentyl-7,7-difluoro-5-methyl-6-oxo-6,7,8,9-tetrahydro-5H-pyrimido[4,5-b][1,4]diazepin-2-yl)amino)-N-(1-(2-(1-(2-(2,6-dioxopiperidin-3-yl)-1,3-dioxoisoindolin-4-yl)azetidin-3-yl)acetyl)piperidin-4-yl)-2-fluoro-5-methoxybenzamide] | + (+<0.7) | – |
| COc1cc(C(=O)NC2CCN(C(=O)[C@@H]3C[C@H](Nc4cccc5c4C(=O)N(C4CCC(=O)NC4=O)C5=O)CN3)CC2)c(F)cc1Nc1ncc2c(n1)N(C1CCCC1)CC(F)(F)C(=O)N2C (stereo partly drawn) [Compound 206, 4-((9-cyclopentyl-7,7-difluoro-5-methyl-6-oxo-6,7,8,9-tetrahydro-5H-pyrimido[4,5-b][1,4]diazepin-2-yl)amino)-N-(1-((2S,4S)-4-((2-(2,6-dioxopiperidin-3-yl)-1,3-dioxoisoindolin-4-yl)amino)pyrrolidine-2-carbonyl)piperidin-4-yl)-2-fluoro-5-methoxybenzamide] | + (+<0.7) | – |
| COc1cc(C(=O)NN2CCC(N3CC4(CCN(c5ccc6c(c5)C(=O)N(C5CCC(=O)NC5=O)C6=O)CC4)C3)CC2)ccc1Nc1ncc2c(n1)N(C(C)C)CC(F)(F)C(=O)N2C (centres unmarked) [Compound 214, 4-((7,7-difluoro-9-isopropyl-5-methyl-6-oxo-6,7,8,9-tetrahydro-5H-pyrimido[4,5-b][1,4]diazepin-2-yl)amino)-N-(4-(7-(2-(2,6-dioxopiperidin-3-yl)-1,3-dioxoisoindolin-5-yl)-2,7-diazaspiro[3.5]nonan-2-yl)piperidin-1-yl)-3-methoxybenzamide] | + (+<0.7) | – |
| COc1cc(C(=O)NCCOCCNc2cccc3c2C(=O)N(C2CCC(=O)NC2=O)C3=O)c(N2CCN(C)CC2)cc1Nc1ncc2c(n1)N(C1CCCC1)CC(F)(F)C(=O)N2C (centres unmarked) [Compound 221, 4-((9-cyclopentyl-7,7-difluoro-5-methyl-6-oxo-6,7,8,9-tetrahydro-5H-pyrimido[4,5-b][1,4]diazepin-2-yl)amino)-N-(2-(2-((2-(2,6-dioxopiperidin-3-yl)-1,3-dioxoisoindolin-4-yl)amino)ethoxy)ethyl)-5-methoxy-2-(4-methylpiperazin-1-yl)benzamide] | + (+<0.7) | – |
| COc1cc(C(=O)NCCOCCOCCNc2cccc3c2C(=O)N(C2CCC(=O)NC2=O)C3=O)c(N2CCN(C)CC2)cc1Nc1ncc2c(n1)N(C1CCCC1)CC(F)(F)C(=O)N2C (centres unmarked) [Compound 222, 4-((9-cyclopentyl-7,7-difluoro-5-methyl-6-oxo-6,7,8,9-tetrahydro-5H-pyrimido[4,5-b][1,4]diazepin-2-yl)amino)-N-(2-(2-(2-((2-(2,6-dioxopiperidin-3-yl)-1,3-dioxoisoindolin-4-yl)amino)ethoxy)ethoxy)ethyl)-5-methoxy-2-(4-methylpiperazin-1-yl)benzamide] | ++ (++<0.6) | – |
| COc1cc(C(=O)NCCOCCOCCOCCNc2cccc3c2C(=O)N(C2CCC(=O)NC2=O)C3=O)c(N2CCN(C)CC2)cc1Nc1ncc2c(n1)N(C1CCCC1)CC(F)(F)C(=O)N2C (centres unmarked) [Compound 223, 4-((9-cyclopentyl-7,7-difluoro-5-methyl-6-oxo-6,7,8,9-tetrahydro-5H-pyrimido[4,5-b][1,4]diazepin-2-yl)amino)-N-(2-(2-(2-(2-((2-(2,6-dioxopiperidin-3-yl)-1,3-dioxoisoindolin-4-yl)amino)ethoxy)ethoxy)ethoxy)ethyl)-5-methoxy-2-(4-methylpiperazin-1-yl)benzamide] | ++ (++<0.6) | – |
| COc1cc(C(=O)NCCOCCOCCOCCOCCNc2cccc3c2C(=O)N(C2CCC(=O)NC2=O)C3=O)c(N2CCN(C)CC2)cc1Nc1ncc2c(n1)N(C1CCCC1)CC(F)(F)C(=O)N2C (centres unmarked) [Compound 224, 4-((9-cyclopentyl-7,7-difluoro-5-methyl-6-oxo-6,7,8,9-tetrahydro-5H-pyrimido[4,5-b][1,4]diazepin-2-yl)amino)-N-(14-((2-(2,6-dioxopiperidin-3-yl)-1,3-dioxoisoindolin-4-yl)amino)-3,6,9,12-tetraoxatetradecyl)-5-methoxy-2-(4-methylpiperazin-1-yl)benzamide] | ++ (++<0.6) | – |
| COc1cc(C(=O)NCCOCCOCCOCCOCCOCCNc2cccc3c2C(=O)N(C2CCC(=O)NC2=O)C3=O)c(N2CCN(C)CC2)cc1Nc1ncc2c(n1)N(C1CCCC1)CC(F)(F)C(=O)N2C (centres unmarked) [Compound 225, 4-((9-cyclopentyl-7,7-difluoro-5-methyl-6-oxo-6,7,8,9-tetrahydro-5H-pyrimido[4,5-b][1,4]diazepin-2-yl)amino)-N-(17-((2-(2,6-dioxopiperidin-3-yl)-1,3-dioxoisoindolin-4-yl)amino)-3,6,9,12,15-pentaoxaheptadecyl)-5-methoxy-2-(4-methylpiperazin-1-yl)benzamide] | ++ (++<0.6) | – |
